According to publication PMC6199744, “Development of Chemical Proteomics for the Folateome and Analysis of the Kinetoplastid Folateome” (ACS Infectious Diseases, 2018):
Read-outs that look alike come from different tables or passages of the source.

Assays:
Format in all cases: binding
[1] = target: T1, HeLa cell extract proteins (Homo sapiens, UniProt P48729); details: protein CSNK1A1; HeLa
T1 construct: endogenous in cells; host or cells: HeLa cell extract

[2] = target: T2, HeLa cell extract proteins (Homo sapiens, UniProt P12236); details: captured protein SLC25A6; HeLa
T2 construct: endogenous in cells; host or cells: HeLa cell extract
T2 sequence (P12236 1-298): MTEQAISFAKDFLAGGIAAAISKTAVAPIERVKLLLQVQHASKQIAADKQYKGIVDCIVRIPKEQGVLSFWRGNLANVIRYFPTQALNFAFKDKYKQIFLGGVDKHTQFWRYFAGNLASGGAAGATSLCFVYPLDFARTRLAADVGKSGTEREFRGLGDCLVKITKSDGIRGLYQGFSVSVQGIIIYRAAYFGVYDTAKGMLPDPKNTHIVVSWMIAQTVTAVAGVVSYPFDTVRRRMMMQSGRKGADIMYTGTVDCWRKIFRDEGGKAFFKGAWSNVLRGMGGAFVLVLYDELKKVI

[3] = target: T3, HeLa cell extract proteins (Homo sapiens, UniProt Q9P2E9)
T3 construct: endogenous in cells; host or cells: HeLa cell extract
T3 sequence (Q9P2E9 1-1410): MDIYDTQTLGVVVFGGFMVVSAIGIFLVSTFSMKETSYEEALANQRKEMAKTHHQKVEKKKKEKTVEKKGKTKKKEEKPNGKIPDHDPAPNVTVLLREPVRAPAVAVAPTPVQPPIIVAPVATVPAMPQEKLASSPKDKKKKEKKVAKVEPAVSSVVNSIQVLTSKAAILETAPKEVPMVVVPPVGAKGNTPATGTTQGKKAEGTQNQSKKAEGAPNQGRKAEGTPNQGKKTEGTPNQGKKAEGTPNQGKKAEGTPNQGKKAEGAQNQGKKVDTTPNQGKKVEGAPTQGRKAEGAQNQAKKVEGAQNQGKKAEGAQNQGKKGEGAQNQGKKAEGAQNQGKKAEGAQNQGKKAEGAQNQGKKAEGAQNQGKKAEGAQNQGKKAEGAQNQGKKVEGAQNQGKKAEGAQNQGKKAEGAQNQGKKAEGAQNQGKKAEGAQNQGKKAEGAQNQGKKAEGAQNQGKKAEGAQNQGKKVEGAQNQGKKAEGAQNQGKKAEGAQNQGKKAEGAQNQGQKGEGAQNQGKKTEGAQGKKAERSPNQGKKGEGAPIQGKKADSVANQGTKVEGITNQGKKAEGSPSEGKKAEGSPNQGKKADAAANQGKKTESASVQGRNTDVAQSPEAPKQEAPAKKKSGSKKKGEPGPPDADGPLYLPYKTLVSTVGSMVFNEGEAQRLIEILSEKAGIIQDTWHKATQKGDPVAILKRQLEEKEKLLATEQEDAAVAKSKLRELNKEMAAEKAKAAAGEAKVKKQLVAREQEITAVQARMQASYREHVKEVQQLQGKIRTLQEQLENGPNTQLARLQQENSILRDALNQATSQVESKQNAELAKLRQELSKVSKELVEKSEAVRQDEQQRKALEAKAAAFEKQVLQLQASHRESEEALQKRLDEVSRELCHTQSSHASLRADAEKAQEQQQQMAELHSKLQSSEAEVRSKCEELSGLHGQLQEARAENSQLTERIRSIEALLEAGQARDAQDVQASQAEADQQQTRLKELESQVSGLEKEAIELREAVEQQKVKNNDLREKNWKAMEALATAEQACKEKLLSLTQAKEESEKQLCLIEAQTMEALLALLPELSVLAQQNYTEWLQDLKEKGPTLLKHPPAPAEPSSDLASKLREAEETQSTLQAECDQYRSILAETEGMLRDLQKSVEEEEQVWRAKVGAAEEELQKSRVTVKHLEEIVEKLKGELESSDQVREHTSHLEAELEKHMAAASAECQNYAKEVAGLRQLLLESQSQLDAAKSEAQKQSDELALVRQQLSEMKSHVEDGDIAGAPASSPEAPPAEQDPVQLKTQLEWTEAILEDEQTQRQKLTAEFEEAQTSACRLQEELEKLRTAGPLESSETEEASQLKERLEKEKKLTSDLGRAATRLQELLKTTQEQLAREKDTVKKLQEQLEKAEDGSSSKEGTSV

[4] = target: T4, HeLa cell extract proteins (Homo sapiens, UniProt O75534)
T4 construct: endogenous in cells; host or cells: HeLa cell extract
T4 sequence (O75534 1-798): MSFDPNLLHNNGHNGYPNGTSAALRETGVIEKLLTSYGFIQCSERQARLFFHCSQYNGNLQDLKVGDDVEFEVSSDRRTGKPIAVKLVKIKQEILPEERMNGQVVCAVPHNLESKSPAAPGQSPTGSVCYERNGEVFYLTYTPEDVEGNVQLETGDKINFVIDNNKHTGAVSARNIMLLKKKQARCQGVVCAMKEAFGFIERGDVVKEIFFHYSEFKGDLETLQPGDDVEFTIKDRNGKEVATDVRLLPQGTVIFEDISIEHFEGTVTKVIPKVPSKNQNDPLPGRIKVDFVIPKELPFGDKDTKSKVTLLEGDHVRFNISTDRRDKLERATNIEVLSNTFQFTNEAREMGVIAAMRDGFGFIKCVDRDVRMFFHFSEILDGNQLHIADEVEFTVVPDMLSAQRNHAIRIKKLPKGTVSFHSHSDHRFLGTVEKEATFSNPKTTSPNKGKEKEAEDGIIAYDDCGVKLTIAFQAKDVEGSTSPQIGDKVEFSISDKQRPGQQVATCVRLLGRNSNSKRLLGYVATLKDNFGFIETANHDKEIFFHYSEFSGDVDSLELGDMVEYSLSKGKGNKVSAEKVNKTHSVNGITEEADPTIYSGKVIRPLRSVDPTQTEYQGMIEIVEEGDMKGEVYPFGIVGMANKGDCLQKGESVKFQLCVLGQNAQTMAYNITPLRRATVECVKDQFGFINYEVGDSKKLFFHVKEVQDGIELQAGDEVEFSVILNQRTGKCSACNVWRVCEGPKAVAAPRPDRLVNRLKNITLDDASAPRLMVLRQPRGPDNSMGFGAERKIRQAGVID

[5] = target: T5, HeLa cell extract proteins (Homo sapiens, UniProt P55084)
T5 construct: endogenous in cells; host or cells: HeLa cell extract
T5 sequence (P55084 34-474): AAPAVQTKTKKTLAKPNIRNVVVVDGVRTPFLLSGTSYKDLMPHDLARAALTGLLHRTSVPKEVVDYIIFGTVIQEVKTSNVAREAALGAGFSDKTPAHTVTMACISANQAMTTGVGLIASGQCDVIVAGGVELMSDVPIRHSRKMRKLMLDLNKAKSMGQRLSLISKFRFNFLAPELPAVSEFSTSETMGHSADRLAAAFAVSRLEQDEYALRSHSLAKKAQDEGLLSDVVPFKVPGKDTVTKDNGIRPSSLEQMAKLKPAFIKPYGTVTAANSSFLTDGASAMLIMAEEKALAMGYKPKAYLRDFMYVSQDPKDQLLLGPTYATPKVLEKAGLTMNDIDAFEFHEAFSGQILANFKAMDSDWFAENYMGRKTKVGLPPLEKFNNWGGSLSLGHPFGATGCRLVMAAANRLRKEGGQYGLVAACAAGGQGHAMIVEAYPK

T1 sequence (P48729 whole entry): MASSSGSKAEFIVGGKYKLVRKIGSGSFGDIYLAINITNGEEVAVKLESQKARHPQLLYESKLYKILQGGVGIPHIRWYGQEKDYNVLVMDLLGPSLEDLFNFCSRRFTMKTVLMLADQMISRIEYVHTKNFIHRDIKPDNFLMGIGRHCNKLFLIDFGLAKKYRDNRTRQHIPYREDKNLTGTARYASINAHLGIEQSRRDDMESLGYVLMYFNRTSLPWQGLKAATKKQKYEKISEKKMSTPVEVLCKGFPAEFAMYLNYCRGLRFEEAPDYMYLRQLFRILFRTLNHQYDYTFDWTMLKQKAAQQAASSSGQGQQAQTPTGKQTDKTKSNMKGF

| SMILES | fold changes relative to vehicle control [1] | fold changes relative to vehicle control [2] | fold changes relative to vehicle control ([3]; HeLa, protein RRBP1) | fold changes relative to vehicle control ([4]; HeLa, protein CSDE1) | fold changes relative to vehicle control ([5]; HeLa, protein HADHB) | also measured |
| --- | --- | --- | --- | --- | --- | --- |
| Nc1nc2cccc(-c3ccccc3)c2n1Cc1ccc(Cl)c(Cl)c1 [compound 3] | 1.06 | 1.01 |  |  |  |  |
| Nc1nc2[nH]cc(CCc3ccc(C(=O)N[C@@H](CCC(=O)O)C(=O)O)cc3)c2c(=O)[nH]1 [PTX, pemetrexed] |  |  |  |  |  | fold changes relative to vehicle control [3]: 1.03; fold changes relative to vehicle control [4]: 1.14; fold changes relative to vehicle control [5]: 0.94 |
| Nc1nc2c(c(=O)[nH]1)N(C=O)C(CNc1ccc(C(=O)N[C@@H](CCC(=O)O)C(=O)O)cc1)CN2 (stereo partly drawn) [LEU, leucovorin] |  |  | 1.08 | 0.96 | 0.85 |  |
| CCCCCCOc1cccc(Cc2cnc(N)nc2N)c1 [compound 2] | 1.17 | 1.04 |  |  |  |  |
| NCCOCCOCC(=O)Nc1nc2ncc(CNc3ccc(C(=O)NC(CCC(=O)O)C(=O)O)cc3)nc2c(=O)[nH]1 (stereo not drawn) [compound 6] |  |  | 1.35 | 1.22 | 1.12 |  |
| CCCCCCOc1ccc(Cc2cnc(N)nc2N)cc1 [compound 1] | 0.93 | 0.98 |  |  |  |  |
| NCCCNc1ccc(C(=O)NC(CCC(=O)O)C(=O)O)cc1 (stereo not drawn) [compound 7] |  |  | 1 | 1.05 | 1.04 |  |
